According to patent US8343959B2, “N-phenyl-(piperazinyl or homopiperazinyl)-benzenesulfonamide or benzenesulfonyl-phenyl-(piperazine or homopiperazine) compounds suitable for treating disorders that respond to modulation of the serotonin 5-HT6 receptor” (Abbott GmbH & Co. KG, priority 2009, dated 2013):
Where a name gives a salt, the structure may show the parent alone. Read-outs that look alike come from different tables or passages of the source. Each block holds one compound with its values, some of them ahead of it.

Molecular target: T1, h-5-HT6 receptor (Homo sapiens, UniProt P50406)
T1 construct: expressed in transfected cells
Experiment: 5-HT6 receptor binding assay (displacement of [3H]-LSD)
Method: Displacement of Radioligands Binding to The Following Cloned Human Receptors
Cells from stable clonal cell lines expressing the corresponding receptor (5-HT6, α1-adrenergic, dopamine D2 or histamine H1 receptors) were washed with PBS (w/o Ca^++, Mg^++) and harvested in PBS with 0.02% EDTA. The cells were collected by centrifugation at 500 g for 10 min. at 4° C., washed with PBS and centrifuged (500 g, 10 min. 4° C.). The pellets were stored at −80° C. until use. For membrane preparation, the thawed cell pellet was resuspended in ice-cold sucrose buffer (0.25 M sucrose, 10 mM Hepes (pH 7.4), 1 mM Phenylmethylsulfonyl fluoride (PMSF) in DMSO, 5 μg/ml Pepstatin-A, 3 mM EDTA, 0.025% Bacitracin) and homogenized with a Branson Sonifier W-250 (Settings: Timer 4; Output Control 3; Duty Cycle constant; 2 to 3 cycles). Cell disruption was checked with the aid of a microscope. Remaining unbroken cells were pelleted at 1.000 g for 10 min. at 4° C. The sucrose buffer supernatant was then centrifuged at 60.000 g for 1 h at 4° C. (Beckman Ultrazentrifuge XL 80). The pellet was resuspended in 30 ml ice-cold Tris buffer (20 mM TRIS (pH 7.4), 5 μg/ml Pepstatin A, 0.1 mM PMSF, 3 mM EDTA) by pipetting through a 10 ml serological pipet and centrifuged for 1 h at 4° C. at 60.000 g. A final resuspension was performed in a small volume of ice-cold Tris buffer (see above) by pressing through a serological pipet followed by ultrasonic treatment with a Branson Sonifier W-250 (Settings: Timer 1; Output Control 3; Duty Cycle constant; 1 cycle). Protein concentration was determined (BCA-Kit; Pierce) and aliquots stored at −80° C. or in liquid nitrogen for long-term storage.
All receptor binding experiments were carried out in the corresponding assay buffer in a total volume of 200 μl in the presence of various concentrations of test compound (10^−5 M to 10^−9 M, tenfold serial dilution, duplicate determinations). The assays were terminated by filtration on polyethylenimine (PEI 0.1% or 0.3%) presoaked Packard Unifilter Plates (GF/C or GF/B) with a Tomtec Machin U 96 well-plate harvester. After the plates had been dried for 2 h at 55° C. in a drying chamber scintillation cocktail (BetaPlate Scint; PerkinElmer) was added. Radioactivity was measured in a Microbeta Trilux two hours after the addition of the scintillation mixture. Data derived from liquid scintillation counting were analysed by iterative non-linear regression analysis with the use of the Statistical Analysis System (SAS): a program similar to “LIGAND” as described by Munson and Rodbard (Analytical Biochemistry 107, 220-239 (1980).
HEK293 cells stably expressing the h-5-HT6 receptor (NCBI Reference Sequence XM 001435) were cultured in RPMI1640 medium supplemented with 25 mM HEPES, 10% fetal calf serum and 1-2 mM glutamine. The membrane preparation was performed as described in section 1. […] Non-specific binding was defined with 1 μM methiothepin. The binding reaction was carried out for 3.5 h at room temperature. During the incubation, the plates were shaken on a plate shaker at 100 rpm and terminated by filtration on Packard Unifilter GF/C (0.1% PEI) plates, followed by 2 wash cycles with ice-cold 50 mM Tris-HCl, 5 mM CaCl2.
Data derived from liquid scintillation counting were analyzed by iterative non-linear regression analysis with the use of the Statistical Analysis System (SAS): a program similar to “LIGAND” as described by Munson and Rodbard (Anal. Biochem. 1980, 107, 220-239). Fitting was performed according to formulae described by Feldman (Anal. Biochem. 1972, 48, 317-338). IC50, nH and Ki values were expressed as geometrical mean.

[1] = membranes of HEK293 cells expressing h-5-HT6 receptor, 1 nM [3H]-LSD, read-out: Ki (5HT6)

T1 sequence (P50406 whole entry): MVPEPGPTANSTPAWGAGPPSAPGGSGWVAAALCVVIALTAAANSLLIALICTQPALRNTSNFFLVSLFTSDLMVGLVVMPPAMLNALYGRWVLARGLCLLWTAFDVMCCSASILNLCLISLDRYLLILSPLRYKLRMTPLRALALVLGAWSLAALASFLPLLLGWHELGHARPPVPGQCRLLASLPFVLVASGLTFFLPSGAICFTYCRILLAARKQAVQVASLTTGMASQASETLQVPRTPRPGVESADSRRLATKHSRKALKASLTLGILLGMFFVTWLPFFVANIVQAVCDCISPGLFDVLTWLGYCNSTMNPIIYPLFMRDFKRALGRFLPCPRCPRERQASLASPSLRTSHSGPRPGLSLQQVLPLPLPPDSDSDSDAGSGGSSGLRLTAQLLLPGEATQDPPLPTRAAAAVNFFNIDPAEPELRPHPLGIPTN

Compound: Cc1ccc(S(=O)(=O)N(c2ccccc2OC(F)F)C(C)C)cc1N1CCNCC1 [Example 39, N-(2-Difluoromethoxy-phenyl)-N-isopropyl-4-methyl-3-piperazin-1-yl-benzenesulfonamide hydrochloride]
Ki [1]: < 500 nM

Compound: COc1ccc(S(=O)(=O)Nc2cccc3c2OC(F)(F)O3)cc1N1CCNCC1 [Example 40, N-(2,2-Difluoro-benzo[1,3]dioxol-4-yl)-4-methoxy-3-piperazin-1-yl-benzenesulfonamide hydrochloride]
Ki [1]: < 50 nM

Compound: CN(c1ccccc1OC(F)F)S(=O)(=O)c1cccc(N2CCNCC2)c1 [Example 43, N-(2-Difluoromethoxy-phenyl)-N-methyl-3-piperazin-1-yl-benzenesulfonamide hydrochloride]
Ki [1]: < 500 nM

Compound: COc1ccc(S(=O)(=O)c2cccc(OC(F)F)c2)cc1N1CCNCC1 [Example 47, 1-[5-(3-Difluoromethoxy-benzenesulfonyl)-2-methoxy-phenyl]-piperazine hydrochloride]
Ki: < 10 nM

Compound: Cc1ccc(S(=O)(=O)Nc2ccc(OC(F)F)c(OC(F)F)c2)cc1N1CCNCC1 [Example 52, N-(3,4-Bis-difluoromethoxy-phenyl)-4-methyl-3-piperazin-1-yl-benzenesulfonamide hydrochloride]
Ki [1]: < 50 nM

Compound: COc1ccc(S(=O)(=O)Nc2cc(OC(F)F)ccc2C)cc1N1CCN(C)CC1 [Example 55, N-(5-Difluoromethoxy-2-methyl-phenyl)-4-methoxy-3-(4-methyl-piperazin-1-yl)-benzenesulfonamide hydrochloride]
Ki [1]: < 10 nM

Compound: Cc1ccc(S(=O)(=O)Nc2cc(Cl)ccc2OC(F)F)cc1N1CCN(C)CC1 [Example 56, N-(5-Chloro-2-difluoromethoxy-phenyl)-4-methyl-3-(4-methyl-piperazin-1-yl)-benzenesulfonamide hydrochloride]
Ki [1]: < 50 nM

Compound: COc1ccc(S(=O)(=O)Nc2cc(Cl)ccc2OC(F)F)cc1N1CCNCC1 [Example 57, N-(5-Chloro-2-difluoromethoxy-phenyl)-4-methoxy-3-piperazin-1-yl-benzenesulfonamide hydrochloride]
Ki [1]: < 10 nM

Compound: Cc1ccc(OC(F)F)cc1NS(=O)(=O)c1ccc(C)c(N2CCNCC2)c1 [Example 58, N-(5-Difluoromethoxy-2-methyl-phenyl)-4-methyl-3-piperazin-1-yl-benzenesulfonamide hydrochloride]
Ki [1]: < 10 nM

Compound: COc1ccc(S(=O)(=O)Nc2cc(OC(F)F)ccc2C)cc1N1CCNCC1 [Example 59, N-(5-Difluoromethoxy-2-methyl-phenyl)-4-methoxy-3-piperazin-1-yl-benzenesulfonamide hydrochloride]
Ki [1]: < 10 nM

Compound: COc1ccc(S(=O)(=O)Nc2ccc(OC(F)F)c(OC(F)F)c2)cc1N1CCNCC1 [Example 60, N-(3,4-Bis-difluoromethoxy-phenyl)-4-methoxy-3-piperazin-1-yl-benzenesulfonamide hydrochloride]
Ki [1]: < 10 nM

Compound: CCc1ccc(S(=O)(=O)Nc2cc(Cl)ccc2OC(F)F)cc1N1CCNCC1 [Example 61, N-(5-Chloro-2-difluoromethoxy-phenyl)-4-ethyl-3-piperazin-1-yl-benzenesulfonamide hydrochloride]
Ki [1]: < 10 nM

Compound: CCc1ccc(S(=O)(=O)Nc2ccc(C)cc2OC(F)F)cc1N1CCNCC1 [Example 62, N-(2-Difluoromethoxy-4-methyl-phenyl)-4-ethyl-3-piperazin-1-yl-benzenesulfonamide hydrochloride]
Ki [1]: < 10 nM

Compound: Cc1ccc(OC(F)F)c(NS(=O)(=O)c2ccc(C)c(N3CCN[C@H](C)C3)c2)c1 [Example 63, N-(2-Difluoromethoxy-5-methyl-phenyl)-4-methyl-3-((R)-3-methyl-piperazin-1-yl)-benzenesulfonamide hydrochloride]
Ki [1]: < 10 nM

Compound: Cc1ccc(OC(F)F)c(NS(=O)(=O)c2ccc(C)c(N3CCN[C@@H](C)C3)c2)c1 [Example 64, N-(2-Difluoromethoxy-5-methyl-phenyl)-4-methyl-3-((S)-3-methyl-piperazin-1-yl)-benzenesulfonamide hydrochloride]
Ki [1]: < 10 nM

Compound: CCc1ccc(S(=O)(=O)Nc2cc(C)ccc2OC(F)F)cc1N1CCNCC1 [Example 65, N-(2-Difluoromethoxy-5-methyl-phenyl)-4-ethyl-3-piperazin-1-yl-benzenesulfonamide hydrochloride]
Ki [1]: < 10 nM

Compound: COc1ccc(S(=O)(=O)Nc2ccc3c(c2)OC(F)(F)O3)cc1N1CCN(C)CC1 [Example 66, N-(2,2-Difluoro-benzo[1,3]dioxol-5-yl)-4-methoxy-3-(4-methyl-piperazin-1-yl)-benzenesulfonamide hydrochloride]
Ki [1]: < 10 nM

The remaining lines, values ahead:

Ki [1]: < 10 nM
Compound: COc1ccc(S(=O)(=O)Nc2ccccc2OC(F)F)cc1N1CCN(C)CC1 [Example 37, N-(2-Difluoromethoxy-phenyl)-4-methoxy-3-(4-methyl-piperazin-1-yl)-benzenesulfonamide hydrochloride]

Ki [1]: < 10 nM
Compound: COc1ccc(NS(=O)(=O)c2ccc(OC)c(N3CCN(C)CC3)c2)cc1OC(F)F [Example 38, N-(3-Difluoromethoxy-4-methoxy-phenyl)-4-methoxy-3-(4-methyl-piperazin-1-yl)-benzenesulfonamide hydrochloride]

Ki [1]: < 10 nM
Compound: O=S(=O)(Nc1ccccc1OC(F)F)c1cccc(N2CCNCC2)c1 [Example 41, N-(2-Difluoromethoxy-phenyl)-3-piperazin-1-yl-benzenesulfonamide hydrochloride]

Ki [1]: < 10 nM
Compound: CN1CCN(c2cccc(S(=O)(=O)Nc3ccccc3OC(F)F)c2)CC1 [Example 42, N-(2-Difluoromethoxy-phenyl)-3-(4-methyl-piperazin-1-yl)-benzenesulfonamide hydrochloride]

Ki [1]: < 10 nM
Compound: O=S(=O)(c1cccc(OC(F)F)c1)c1cccc(N2CCNCC2)c1 [Example 45, 1-[3-(3-Difluoromethoxy-benzenesulfonyl)-phenyl]-piperazine hydrochloride]

Ki [1]: < 10 nM
Compound: CN1CCN(c2cccc(S(=O)(=O)c3cccc(OC(F)F)c3)c2)CC1 [Example 46, 1-[3-(3-Difluoromethoxy-benzenesulfonyl)-phenyl]-4-methyl-piperazine hydrochloride]

Ki [1]: < 10 nM
Compound: COc1ccc(S(=O)(=O)c2cccc(OC(F)F)c2)cc1N1CCN(C)CC1 [Example 48, 1-[5-(3-Difluoromethoxy-benzenesulfonyl)-2-methoxy-phenyl]-4-methyl-piperazine hydrochloride]

Ki [1]: < 10 nM
Compound: COc1ccc(S(=O)(=O)c2ccc(OC)c(N3CCNCC3)c2)cc1OC(F)F [Example 49, 1-[5-(3-Difluoromethoxy-4-methoxy-benzenesulfonyl)-2-methoxy-phenyl]-piperazine hydrochloride]

Ki [1]: < 10 nM
Compound: COc1ccc(S(=O)(=O)Nc2ccc(OC(F)F)c(OC(F)F)c2)cc1N1CCN(C)CC1 [Example 51, N-(3,4-Bis-difluoromethoxy-phenyl)-4-methoxy-3-(4-methyl-piperazin-1-yl)-benzenesulfonamide hydrochloride]

Ki [1]: < 10 nM
Compound: COc1ccc(S(=O)(=O)Nc2cc(Cl)ccc2OC(F)F)cc1N1CCN(C)CC1 [Example 53, N-(5-Chloro-2-difluoromethoxy-phenyl)-4-methoxy-3-(4-methyl-piperazin-1-yl)-benzenesulfonamide hydrochloride]

Ki [1]: < 10 nM
Compound: CCc1ccc(S(=O)(=O)Nc2cc(C)ccc2OC(F)F)cc1N1CCN(C)CC1 [Example 54, N-(2-Difluoromethoxy-5-methyl-phenyl)-4-ethyl-3-(4-methyl-piperazin-1-yl)-benzenesulfonamide]
